pIC50: −log10 of the molar value.
Experiments:
[1] = test system: WSU-DLCL2 (EZH2-Y641F) cell; assay: Anti-proliferation of lymphoma cell WSU-DLCL2, viable cell count; type: cell-based; conditions: Homo sapiens, WSUDLCL2, 216 h, read-out: IC50 of proliferation inhibition
Procedure: (§1) Viable cell numbers were counted every 3 days up to 15 days by Vi-CELL (Beckman Coulter). For cell cycle analysis, MAK683 treated cells were fixed with pre-chilled 70% ethanol and kept at -20 degree overnight. On the second day, the cells were washed with cold PBS twice and collected by spin at 1000 rpm, digested with RNase A, then stained with 10 μg /mL Propidium Iodide in PBS solution for 30 min at room temperature. The stained cell samples were filtered through 70 μm cell strainer, and the staining signals were detected using flow cytometer (BD Fortessa). The acquired data were further analyzed by Modfit LT.

[2] = test system: H3K27me3 in HeLa cell; assay: Inhibition of cellular H3K27me3 (western blot quantification); type: cell-based; conditions: Homo sapiens, 72 hr of treatment, n = 3
Procedure: Cells were washed once with cold PBS and lysed by RIPA lysis buffer and incubated with 4 × SDS loading buffer at 95 °C for 10 min. Whole cell proteins were used for electrophoresis and then transferred to a nitrocellulose membrane. The membrane was blocked with Tris buffered saline containing 0.075% Tween-20 and 5% non-fat milk. Then the membranes were incubated with primary antibodies overnight at 4 °C. The next day, membranes were incubated with secondary antibodies for 1 h at room temperature.

[3] = test system: MCAS cells; assay: Cancer cell proliferation, viable cell count; type: cell-based; conditions: up to 15 days
Procedure: as §1

[4] = test system: HeLa cells; assay: Cancer cell proliferation, viable cell count; type: cell-based; conditions: up to 15 days
Procedure: as §1

[5] = test system: RD cells; assay: Cancer cell proliferation, viable cell count; type: cell-based; conditions: up to 15 days
Procedure: as §1

[6] = test system: A2780 cells; assay: Cancer cell proliferation, viable cell count; type: cell-based; conditions: A2780 (ARID1A-deficiency), up to 15 days
Procedure: as §1

[7] = test system: G401 xenograft tumors; assay: Subcutaneous G401 xenograft tumor study; type: in vivo, mice
Procedure: (§2) The animal study design and performance were evaluated and approved by Institutional Animal Care and Use Committee of ShanghaiTech University under the document number of 20201225001 and following the internationally recognized guidelines on animal welfare. To establish G401 xenograft models, WT G401 or p16 knock out cells were washed and resuspended in cold PBS and mixed with Matrigel at 1:1 (v/v) to reach the final ratio of 5 × 10^6 cells per 200 μL. Then the tumor cell mix were injected subcutaneously into the right flank of female Balb/c nude mice (5–6 weeks of age).
(§3) When tumor volume reached around 60-350 mm^3, the mice were numbered and randomized into vehicle or 100 mg/kg MAK683 treatment groups. The random numbers were generated using Excel (Software). The mice with tumor size out of the range were not included in the study. Empirically, at least 6 mice were included for each group. For compound dosing, MAK683 was resolved and suspended in water with 0.5% HPMC and 0.5% Tween at the concentration of 10 mg/mL. Dosing without blinding took place very day in the morning around 8 am. Mice weight and tumor volumes are measured and recorded every 3 days. Tumor volumes were calculated based on perpendicular length and width caliper measurements using the following formula: tumor volume (mm^3) = 0.5 × (length × width^2).
(§4) Tumor tissues were fixed in freshly-prepared 4% PFA for 24 hours, dehydrated through 30%, 50%, 70%, 85%, and 90% ethanol five-minute each, and 100% ethanol triple, permeabilized through xylene five-minute twice and then embedded in paraffin, and finally cut into 5 μm-thick sections. The sections were de-paraffinized with xylene for 10 min triple, rehydrated with ethanol from high to low concentration five minutes each and dH2O twice. […] After cool down to room temperature, endogenous peroxidase was inactivated with 3% H2O2 in methanol. Then the sections were washed with dH2O twice, blocked with 5% normal goat serum in PBS with 0.25% Triton X-100 for 1 hour at room temperature followed by primary antibodies incubation overnight at 4 °C. After HRP-conjugated secondary antibodies were incubated for 1 hours at room temperature, the sections were visualized with DAB. For quantification of Ki-67, H3K27me3 or ITGA2 positivity, the ratios of DAB positive cells to total cells in five representative fields were counted. For quantification of F4/80 positivity, the ratios of DAB positive area to total cells were counted. Five 40 × objective magnification fields per selection were counted and averaged.
Cell senescence study was used by Beyotime in Situ β-galactosidase Staining Kit. Adherent cells were fix by fix-buffer for 15 min at room temperature and wash with PBS twice, then stain by stain-buffer mixture at 37 °C overnight. Frozen tissue sections were counterstained with eosin.

[8] = test system: p16 KO G401 cells; assay: Proliferation of p16 KO G401 cells, viable cell count; type: cell-based; conditions: p16 KO G401 clones vs G401; MAK683 at 1 μM (proliferation), 3 μM 3 days (cell cycle)
Procedure: as §1
Two pairs of guide RNAs (Supplementary Table 1) targeting the exon2 of human CDKN2A (NM_000077) were designed using ChopChop website. gRNA oligos were synthesized, annealed and subcloned into the pSpCas9(BB)-2A-GFP (PX458). G401 and A2780 cell lines were transfected with the resultant plasmids, cultured for 48 h, and then applied to the single cell sorting for selecting GFP-positive cell by flow cytometer. Single cell clones were first cultured each well of 96-well plate, and then gradually expanded in larger cultures for further experiments. […]

[9] = test system: p16 KO xenograft tumors; assay: Subcutaneous p16 KO G401 xenograft tumor study; type: in vivo, mice
Procedure: as §2, §3, §4
Cell senescence study was used by Beyotime in Situ β-galactosidase Staining Kit. Adherent cells were fix by fix-buffer for 15 min at room temperature and wash with PBS twice, then stain by stain-buffer mixture at 37 °C overnight. […]

[10] = Body weight of tumor-bearing animals; type: in vivo; conditions: 100 mg/kg daily, G401 xenograft-bearing mice, 25 days
Procedure: as §3

[11] = test system: Hs700T cells; assay: Cancer cell proliferation, viable cell count; type: cell-based; conditions: Hs700T (SMARCA4-deficiency), up to 15 days
Procedure: as §1

[12] = test system: G401 cells; assay: Cancer cell proliferation, viable cell count; type: cell-based; conditions: G401 (SMARCB1 deficiency), up to 15 days
Procedure: as §1

[13] = test system: G402 cells; assay: Cancer cell proliferation, viable cell count; type: cell-based; conditions: G402 (SMARCB1 deficiency), up to 15 days
Procedure: as §1

[14] = test system: A204 cells; assay: Cancer cell proliferation, viable cell count; type: cell-based; conditions: A204 (SMARCB1 deficiency), up to 15 days
Procedure: as §1

[15] = 100 mg/kg po qd, 25 days treatment
[16] = WT G401 tumor, 100 mg/kg, continuous treatment 46 days, treatment endpoint
[17] = p16 KO xenograft, 100 mg/kg, continuous treatment 46 days, treatment endpoint

With CS(=O)(=O)c1ccc(-c2cnc(NCc3ccco3)n3cnnc23)cc1 [EED226] the pIC50 [1] was 7.45 and the pIC50 [2] was 6.68.
For CCN(c1cc(-c2ccc(CN3CCOCC3)cc2)cc(C(=O)NCc2c(C)cc(C)[nH]c2=O)c1C)C1CCOCC1 [EPZ6438], the “Sensitivity of proliferation to treatment” value (from here on “Sensitivity of proliferation”) [3] was “not sensitive”, the “Sensitivity of proliferation” value [4] was “not sensitive” and the “Sensitivity of proliferation” value [5] was “not sensitive”. For the same compound, the “Sensitivity of proliferation” value [6] was “similarly inhibited the proliferation”.
In the case of Cc1ncccc1-c1cnc(NCc2c(F)ccc3c2CCO3)n2cnnc12 [MAK683], the TGI [7, 15] was 67.20%, the “Tumor volume T/C%” value [7, 15] was 30.55% and the “Ki-67 in treated tumors (IHC)” value ([7]; 100 mg/kg po qd, day 25) was “significantly reduced”. The “SA-β-gal activity in treated tumors” value ([7]; 100 mg/kg po qd, day 25) was “increased”, the “H3K27me3 in treated tumors (IHC)” value ([7]; 100 mg/kg po qd, day 25, 4 h post treatment) was “significantly decreased” and the T/C% [7, 16] was 7.21%. For the same compound, the TGI [7, 16] was 91.25%, the “Ki67 positivity in tumors” value ([7]; WT tumors, 46 days) was “reduced” and the “SA-β-gal signal in tumors” value ([7]; WT tumors, 46 days) was “increased”. The “Response of p16 KO cells to induced cell cycle arrest and proliferation blockage” value [8] was “partially resistant”, the pIC50 [1] was 8.94 and the pIC50 [2] was 8.99. For the same compound, the “Ki67 positivity in tumors” value ([9]; p16 KO tumors, 46 days) was “reduced”, the T/C% [9, 17] was 35.81% and the TGI [9, 17] was 54.18%. The “SA-β-gal signal in tumors” value ([9]; p16 KO xenografts, 46 days) was “unchanged”, the “Animals' body weight” value [10] was “unaffected” and the “Sensitivity of proliferation” value [3] was “not sensitive”. The “Sensitivity of proliferation” value [11] was “moderately sensitive”, the “Sensitivity of proliferation” value [4] was “not sensitive” and the “Sensitivity of proliferation” value [12] was “sensitive”. The “Sensitivity of proliferation” value [13] was “sensitive”, the “Sensitivity of proliferation” value [14] was “sensitive” and the “Sensitivity of proliferation” value [5] was “not sensitive”. The “Sensitivity of proliferation” value [6] was “moderately sensitive”.

— publication PMC8847585, “Induction of senescence-associated secretory phenotype underlies the therapeutic efficacy of PRC2 inhibition in cancer” (Cell Death & Disease, 2022)
